Results from US7517960B2, “Rat KCNQ5 voltage-gated potassium channel” (Wyeth, priority 2006, dated 2009).

Legend:
[1] = tested on: rat KCNQ5/KCNQ3 heteromeric channels; assay: Two-electrode voltage clamp recording of rKCNQ5 co-expressed with KCNQ3 in Xenopus laevis oocytes; assay type: cell-based; settings: FIG. 2D
From the text: There is a significant increase in the current amplitude of the rat KCNQ5/KCNQ3 heteromeric channels compared with that of the rKCNQ5 or rat KCNQ3 homomeric channels. The homomeric channels here refer to those with only one type of channel subunits expressed in Xenopus laevis oocytes. In this case, it refers to either rKCNQ5 alone (FIG. 2A) or rat KCNQ3 alone (FIG. 2B). Heteromeric channels means that the functional channels are composed of subunits of both rKCNQ5 and rat KCNQ3 (FIG. 2C). It is believed that those functional channels are composed of 4 such subunits. Therefore, the functional channels are “tetramers”. If the 4 subunits are the same type (e.g. 4 rKCNQ5 subunits, or 4 rat KCNQ3 subunits), there are known as “homotetramers”. If the 4 subunits in these functional channels are different (e.g., 2 rKCNQ5+2 rat KCNQ3, or 3 rat KCNQ5+1 rat KCNQ3, etc.), they are known as “heterotetramers”.
For Examples 4 and 5, the cRNAs of rKONQ5 were injected directly into Xenopus laevis oocytes and the electrophysiological recordings were performed 48-72 hours after RNA injection using two-electrode voltage clamp recording (see Jow F and Wang K-W, Mol. Brain Res. 80:269-78 (2000) for methods). The electrodes were filled with 3 M KCI solution with resistances ranging from 0.5 to 1.5 MΩ. […]

rat KCNQ5 = assay: Two-electrode voltage clamp recording of rat KCNQ5 expressed in Xenopus laevis oocytes; assay type: cell-based; settings: homomeric rKCNQ5, cRNA-injected Xenopus laevis oocytes, recorded 48-72 hours after injection, FIG. 1B
Procedure: The electrodes were filled with 3 M KCl solution with resistances ranging from 0.5 to 1.5 MΩ.
For Examples 4 and 5, the cRNAs of rKONQ5 were injected directly into Xenopus laevis oocytes and the electrophysiological recordings were performed 48-72 hours after RNA injection using two-electrode voltage clamp recording (see Jow F and Wang K-W, Mol. Brain Res. 80:269-78 (2000) for methods). The electrodes were filled with 3 M KCI solution with resistances ranging from 0.5 to 1.5 MΩ. The bath solution pf pH 7.4 was a “ND96” containing the following (in mM): NaCI, 96; KCl, 2; CaCl21.8; MgCl2 1; HEPES, 10 (see FIG. 1A).

O=C1c2ccccc2C(Cc2ccncc2)(Cc2ccncc2)c2ccccc21 [XE991]
current amplitudes of heterotetramer channels [1]: decrease
KCNQ5 channel current amplitude (rat KCNQ5): decreased the current amplitude
